Data reported in paper PMC12261233, “Photoactivatable Cyclometalated Ir(III) Compound Penetrates the Blood-Brain Barrier in 3D Spheroidal and Advanced 3D Organoid Models of Inherently Resistant and Aggressive Brain Tumors” (ACS Pharmacology & Translational Science, 2025).
Like-named read-outs stand apart in the source and are kept apart here.

Key:
U87MG spheroids [1] = experiment: Antiproliferative activity, 3D spheroids, CellTiter-Glo 3D assay; type: cell-based, human; conditions: for PI (phototoxicity index) 3D: IC50 dark / IC50 420 nm irradiated; for IC50: U87MG 3D spheroids, 90 min treatment, CellTiter-Glo 3D; for TMI (3D/2D): ratio of IC50 for 3D and 2D models under irradiation
Procedure: The antiproliferative activity of the compounds under investigation was assessed using the Sulforhodamine B (SRB) assay on both 2D cell monolayers and 3D spheroids. For the 2D cell monolayer assay, cells were seeded in 96-well tissue culture plates at a density of 3 × 10^3 cells/well in 100 μL of culture medium. Following overnight incubation in a humidified CO2 incubator, the medium was replaced, and the cells were treated with the investigated compounds in a final volume of 200 μL/well of Earle’s Balanced Salt Solution (EBSS). The cells were then exposed to the tested compounds for 1.5 h under dark conditions (5% CO2, 37 °C) and subsequently irradiated with blue light (420 nm) for 30 min at an intensity of 58 W/m^2. After treatment, the samples were washed with Phosphate-Buffered Saline (PBS) and replenished with 200 μL of culture medium. Following an additional 70-h incubation, the cells were washed with PBS, fixed with trichloroacetic acid at 4 °C for 1 h, and stained with 0.4% SRB dye for 30 min. The stained cells were dissolved with Tris (10 mM), and the cell viability was assessed by measuring the absorbance at 570 nm using an Absorbance Reader (SPARK TECAN, SCHOELLER). The absorbance readings were then converted to the percentage of control (% cell survival), and the antiproliferative effects were expressed as IC50 values, which were calculated from curves plotting cell survival (%) versus drug concentration (μM) (IC50 = the concentration of the agent that inhibits cell growth by 50%). For experiments with 3D spheroids, 2500 single cells/well were seeded on ultralow attachment U-shape 96-well plates (Corning, USA) and cultured for 72 h in 3D forming medium DMEM-F12 ham medium supplemented with growth and spheroid forming factors: 2% B27 (Thermo Fisher Scientific Inc., MA, USA), epidermal growth factor (EGF; Sigma-Aldrich, Germany, 20 ng mL^–1), fibroblast growth factor (FGF2; Sigma-Aldrich, Germany, 10 ng mL^–1), and BSA (0.15%). After the 72-h spheroid formation period, the samples were treated and irradiated as described for the 2D cultures. Subsequently, the samples were cultured in the 3D forming medium for an additional 70 h, and the antiproliferative potency of the tested compounds against spheroids was determined by assessing changes in IC50 values using the CellTiterGlo-3D assay (Promega). The luminescence signal was detected using the plate reader SPARK (Tecan, Manedorf, Switzerland), and the IC50 values were calculated from the survival curves. All experiments were conducted in triplicate to ensure the reliability and reproducibility of the results. Furthermore, the concentrations of the compounds in the medium during the treatment were verified using Flame Atomic Absorption Spectroscopy (FAAS) or Inductively Coupled Plasma Mass Spectrometry (ICP-MS).
The antiproliferative activity (IC50 valuesa) of the investigated compounds determined in 2D and 3D models of U87MG cellsb
Dark Irradiated PId Dark Irradiated PIe (3D/2D) […]
a Concentration that causes 50% inhibition of cell proliferation. b Cell monolayer or generated 3D spheroids were treated for 90 min with increasing concentrations of the investigated compounds, followed by 30 min of irradiation with blue light (420 nm; 58 Wm-2) and 70 h of drug-free incubation. c IC50 values were determined by SRB assay. d IC50 values were determined by CellTiter-Glo® 3D chemiluminescent assay. e PI - phototoxicity index was calculated as the ratio of IC50 determined under the dark conditions / IC50 determined for 420 […]
f TMI – tissue-mass index was calculated as the ratio of IC50 values determined for 3D and 2D models under irradiation conditions.

U87MG spheroids [2] = experiment: Distribution of iridium compounds in Matrigel-embedded spheroids (confocal); type: cell-based, human; conditions: 5 μM, 3 h
Procedure: Spheroids derived from U87MG cells were encapsulated in a Matrigel matrix. The U87MG cells were incubated for 72 h under 3D conditions using ULA 96-well U-shaped plates (Corning) and cultured in DMEM-F12 ham medium supplemented with growth factors conducive to spheroid formation: 2% B27 (Thermo Fisher Scientific Inc., MA, USA), epidermal growth factor (EGF; Sigma-Aldrich, Germany, 20 ng mL^–1), fibroblast growth factor (FGF2; Sigma-Aldrich, Germany, 10 ng mL^–1), and BSA (0.15%). Following the 72-h spheroid formation phase, the samples were embedded in a Matrigel matrix and allowed to gel completely (30 min). Afterward, the spheroids were further cultured for 24 h in confocal Petri dishes (Mattek) with 3D forming medium. Subsequently, the samples were exposed to 5 μM of the tested compounds 3, 4, and 5 for 3 h. The samples were then rinsed, transferred to a fresh 3D forming medium, and visualized using a confocal microscope (Leica CM SP8 SMD, Leica, Germany). Imaging was conducted in defined Z-stacks with a 20 μm step, and fluorescence intensities were captured and analyzed using ImageJ software.

[3] = dark, 70 h drug-free, read-out: IC50 3D Dark
[4] = 30 min blue light 420 nm 58 W m-2, 70 h drug-free, read-out: IC50 3D Irradiated

Cc1ccc(-c2cc3[n+]4c(c2)-c2cccc[n+]2[Ir-3]42([Cl])([c]4cc5ccccc5cc4-c4n(Cc5ccc(C(F)(F)F)cc5)c5ccccc5[n+]42)[n+]2ccccc2-3)cc1.F[P-](F)(F)(F)(F)F [Ir3] was tested, and the “PI (phototoxicity index) 3D” value (U87MG spheroids [1]) was 6.1, the IC50 (U87MG spheroids [1]; [3]) was 36.6 ± 4.5 µM and the IC50 (U87MG spheroids [1]; [4]) was 6 ± 1 µM. The “TMI (3D/2D)” value (U87MG spheroids [1]) was 9.0 and the distribution within spheroid (U87MG spheroids [2]) was “primarily localized in the outer regions of the spheroids”.
Compound Cn1nnc2c(C(N)=O)ncn2c1=O [Temozolomide, reference compound] has an IC50 (U87MG spheroids [1]; Homo sapiens, U-87 MG, light or radiation study, 30 min blue light 420 nm 58 W m-2, 70 h drug-free, read-out: IC50 3D Irradiated) of 95.3 ± 6.4 µM and an IC50 (U87MG spheroids [1]; Homo sapiens, U-87 MG, dark, 70 h drug-free, read-out: IC50 3D Dark) of no less than 100 µM.
In the case of CCCCn1c2[n+](c3cc(C(=O)OC)ccc31)[Ir-3]13([Cl])([c]4ccccc4-2)[n+]2ccccc2-c2cc(-c4ccc(C)cc4)cc([n+]21)-c1cccc[n+]13.F[P-](F)(F)(F)(F)F [Ir4], the “PI (phototoxicity index) 3D” value (U87MG spheroids [1]) is reported as 13.1, the IC50 (U87MG spheroids [1]; [3]) is reported as 27.6 ± 4 µM and the IC50 (U87MG spheroids [1]; [4]) is reported as 2.1 ± 0.2 µM. The “TMI (3D/2D)” value (U87MG spheroids [1]) was 4 and the distribution within spheroid (U87MG spheroids [2]) was “most uniform distribution”.
In the case of Cc1ccc(-c2cc3[n+]4c(c2)-c2cccc[n+]2[Ir-3]42([Cl])([c]4c(ccc5c4OCO5)-c4n(Cc5ccc(C(F)(F)F)cc5)c5ccccc5[n+]42)[n+]2ccccc2-3)cc1.F[P-](F)(F)(F)(F)F [Ir5], the “PI (phototoxicity index) 3D” value (U87MG spheroids [1]) is reported as 4.5, the IC50 (U87MG spheroids [1]; [3]) is reported as 32.3 ± 3.3 µM and the IC50 (U87MG spheroids [1]; [4]) is reported as 7.1 ± 0.8 µM. For the same compound, the “TMI (3D/2D)” value (U87MG spheroids [1]) was 16.9 and the distribution within spheroid (U87MG spheroids [2]) was “primarily localized in the outer regions of the spheroids”.
